{"source": "patent US9296785B2", "about": "“IL-13 receptor binding peptides” (Wake Forest University Health Sciences, priority 2009, dated 2016)", "key": {"U-251 MG GBM cells": {"tested_on": "U-251 MG GBM cells", "test": "Morphology of U-251 MG GBM cells after treatment", "assay_type": "cell-based", "conditions": "over-expressor of IL-13Rα2, 1 to 20 μM or equimolar concentrations", "text": "(§1) We have designed double-specificity therapeutic delivery systems, which not only specifically recognize cancer cells, but also enable intracellular distribution of anti-cancer agents to their respective sites of action, like the cytosol, mitochondria and/or nucleus. Some cationic peptides lyse negatively charged mitochondrial membranes of a eukaryotic cell, leading to initiation of caspase-3 dependent cell death. We have chosen one such peptide, (KLAKLAK)2 [SEQ ID NO:1, KK] to target the mitochondria of glioblastoma multiforme (GBM) brain tumor cells. To target GBM cells, we exploited interleukin 13 receptor alpha 2 (IL-13Rα2), an IL-13 plasma membrane receptor which is over-expressed in 75% of GBM patients. To enable intracytosolic delivery of the KK peptide mediated first by the IL-13Rα2, we use Pseudomonas exotoxin A (PE) domain II [D2] based delivery vector. D2 of PE is responsible for the processing and translocation of the internalized toxin and any other protein/agent fused to its C-terminal end from the endosome to the cytosol. Thus, we have generated single chain fusion proteins composed of IL-13, D2 and KK: IL-13.D2 and IL-13.D2.KK, respectively. These proteins were expressed in BL21 (λDE3) E. coli under the bacteriophage T7 promoter control and were further processed and purified by the FPLC system to >95% purity. […]"}, "U-87 MG GBM cells": {"tested_on": "U-87 MG GBM cells", "test": "Morphology of U-87 MG GBM cells after treatment", "assay_type": "cell-based", "conditions": "over-expressor of IL-13Rα2, 1 to 20 μM or equimolar concentrations", "text": "as §1"}}, "data": [{"substance": "(KLAKLAK)2 (KLAKLAKKLAKLAK; Amphipathic antimicrobial peptide sequence) [KK peptide]", "values": [{"measurement": "effect on cell morphology", "setting": "U-251 MG GBM cells", "result": "did not have any measurable effect"}, {"measurement": "effect on cell morphology", "setting": "U-87 MG GBM cells", "result": "did not have any measurable effect"}]}]}
